The source of these data is US20030232834A1, “Combination therapy for the prophylaxis and treatment of hyperlipidemic conditions and disorders” (priority 2002, published 2003).

One series has as its system Male beagle dogs. Kind of series: Serum triglyceride in beagle dogs. The format is in vivo, dog. The following applies: pravastatin 10 mg/kg/day dosed Weeks 1-11; Week 10; mean ± SEM, n=6. The protocol: Following this initial four week dose-ranging study, dogs from the two groups receiving 10 mg/kg/day pravastatin (a.m. and p.m. dosing groups) were randomized into two new treatment groups based on serum total cholesterol levels to initiate the combination treatment study. One group received an empty capsule (a.m. dosing) and 10 mg/kg/day pravastatin (p.m. dosing) and the other received 4.0 mg/kg/day compound A-5 (a.m. dosing) and 10 mg/kg/day pravastatin (p.m. dosing). A third group that had received empty capsules (vehicle) in the dose-ranging study was used for compound A-5 monotherapy and was administered 4.0 mg/kg/day compound A-5 (a.m. dosing) and an empty capsule (p.m. dosing). […]
Blood was collected from the cephalic vein of each dog into serum separator tubes. […] Commercial calibrator and quality control materials were analyzed with each run to verify assay accuracy and precision. […]
Serum lipid measurements were obtained as described in Example 3 above except that blood was collected from either the cephalic or jugular vein of each dog into serum separator tubes and the blood was centrifuged at 2000 rpm for 20 minutes. Table X-4A below reports the data measured on the effect of the compound A-5/pravastatin combination therapy on serum total cholesterol. […]

Series [1] is described as follows: Water uptake experiments (Dynamic Vapor Sorption). The format is physicochemical. The following applies: equilibrated under 80% relative humidity (RH) air at 25° C. How it is done:
A dry sample of the crystalline form having a melting point or a decomposition point of about 278° C. to about 285° C. (i.e., Form II) typically gains less than about 1% of its own weight when equilibrated under 80% relative humidity (RH) air at 25° C. […] For the present purposes, the term “essentially 0% RH” means less than about 1% RH. The term “equilibrated” means that the change in weight of a sample over time at a given relative humidity is less than 0.0003% ((dm/dt)/m0×100, where m is mass in mg, m0 is initial mass, and t is time in minutes).
Water sorption experiments are performed on a Dynamic Vapor Sorption (DVS) apparatus (DVS-1000 manufactured by Surface Measurements Systems, Inc.). Experiments are performed at 25° C. by initially drying the material of interest (about 10 mg sample) from 30% relative humidity (RH) (ambient room condition) to about 9% RH in a stepwise fashion (10% RH step) by purging with dry nitrogen until no further weight change was observed. The samples are then exposed to a stepwise (10% RH steps) increase in RH from about 0 to about 90% RH. Each successive step is initiated when the change in weight over time at the relative humidity was less than 0.0003% ((dm/dt)/m0×100, where m is mass in mg, m0 is initial mass, and t is time in minutes). […] The data are collected on a computer and analyzed using SMS' proprietary MS-Excel macro interface software.

For the compound `CC[C@H](C)C(=O)O[C@H]1C[C@H](O)C=C2C=C[C@H](C)[C@H](CC[C@@H](O)C[C@@H](O)CC(=O)O)[C@H]21` [pravastatin, Pravastatin], in the series on Male beagle dogs, the “TOTAL SERUM TRIGLYCERIDE” value was determined as 43 ± 5 mg/dL.
As to `CCCCC1(CCCC)CS(=O)(=O)c2ccc(N(C)C)cc2[C@@H](c2ccc(OCc3ccc(C[N+]45CCN(CC4)CC5)cc3)cc2)[C@H]1O.[Cl-]` [Form II, (4R,5R)-1-((4-(4-(3,3-dibutyl-7-(dimethylamino)-2,3,4,5-tetrahydro-4-hydroxy-1,1-dioxido-1-benzithiepin-5-yl)phenoxy)methyl)phenyl)methyl-4-aza-1-azoniabicyclo[2.2.2]octane chloride], the “weight gain of a dry sample (of its own weight)” value in series [1] was “less than 1%”.
